{"source": "patent US20220117958A1", "about": "“COMPOSITIONS AND METHODS FOR INHIBITING ACSS2” (THE TRUSTEES OF THE UNIVERSITY OF PENNSYLVANIA, priority 2018, published 2022)", "key": {"[1]": {"experiment": "Microsomal stability assay (half-life), mouse", "type": "in vitro ADME", "settings": "Mouse (CD1) microsomes, read-out: Microsomal stability T1/2", "from_the_text": "(§1) Table 20 provides results of in vitro and in vivo pharmacokinetics performed for each of the represented compounds."}, "[2]": {"experiment": "Microsomal stability assay (half-life), rat", "type": "in vitro ADME", "settings": "Rat (SD) microsomes, read-out: Microsomal stability T1/2", "from_the_text": "as §1"}, "[3]": {"experiment": "In vivo PK, IV dose, Terminal - brain (brain availability)", "design": "species or system Rat (SD)", "settings": "for Brain concentration, mean / Brain concentration, individual animal: IV 1 mg/kg; for Brain concentration, individual animal: Rat", "method": "Table 3 and FIG. 5 depict the brain availability of ADG I-204, ADG I-205, ADG I-206, and ADG I-207 after IV administration of 1 mg/kg dose."}, "[4]": {"experiment": "Turbidity-based aqueous solubility", "type": "physicochemical", "settings": "aqueous solution (composition not given), kinetic from dmso stock, read-out: highest soluble concentration", "from_the_text": "as §1"}, "[5]": {"experiment": "Microsomal stability assay (half-life), human", "type": "in vitro ADME", "settings": "Human microsomes, read-out: Microsomal stability T1/2", "from_the_text": "as §1"}, "H3K9ac": {"tested_on": "H3K9ac", "experiment": "Western blot, differentiated CAD cell lysates, H3K9ac levels", "type": "cell-based", "settings": "differentiated CAD cells, DMSO = 100.00%", "from_the_text": "as §1"}, "[6]": {"experiment": "In vivo PK, IV dose, plasma", "design": "species or system Rat (SD)", "settings": "for Plasma concentration, mean / Plasma concentration, individual animal: IV 1 mg/kg, listed as ADG I-204, 1 mg/kg", "from_the_text": "as §1\n(§2) Tables 4 and 5 depict the summary of rat plasma sample concentrations after administration of ADG I-204. FIG. 6 provides a summary of rat plasma and brain concentrations."}, "[7]": {"experiment": "Protein binding via Rapid Equilibrium Dialysis - plasma", "type": "in vitro ADME", "settings": "Rat (SD) plasma, 2 μM", "from_the_text": "as §1"}, "[8]": {"experiment": "In vivo PK, oral gavage, plasma", "design": "species or system Rat (SD)", "settings": "PO 5 mg/kg; for Plasma concentration, mean: Rat (SD), BQL = below quantitation limit (1.00 ng/mL); for Plasma concentration, individual animal: Rat, BQL limit 1.00 ng/mL", "from_the_text": "as §1, §2"}}, "note": "Values joined by “and” are separate entries in the source; they are usually repeats but may differ in a detail not shown here. Equal entries are not always repeated. Where two headings read alike, the source gives them in different places. Marks after values point to notes of the source that are not given here.", "data": [{"compound": "CCCCCNC(=O)Nc1ccc2nc(-c3cccs3)c(-c3cccs3)nc2c1", "note": "[ADG-204]", "values": [{"measurement": "half-life at 2 μM", "setting": "[1]", "value": 5.02, "unit": "h"}, {"measurement": "half-life at 2 μM", "setting": "[2]", "value": 3.92, "unit": "h"}, {"measurement": "Brain concentration, mean", "setting": "[3]; Rat (SD), 4 hr, BQL limit 10.0 ng/g (204, 206), 20.0 ng/g (205, 207)", "value": "BQL"}, {"measurement": "Brain concentration, mean", "setting": "[3]; Rat (SD), 8 hr, BQL limit 10.0 ng/g (204, 206), 20.0 ng/g (205, 207)", "value": "BQL"}, {"measurement": "Brain concentration, mean", "setting": "[3]; Rat (SD), 24 hr, BQL limit 10.0 ng/g (204, 206), 20.0 ng/g (205, 207)", "value": "BQL"}, {"measurement": "Brain concentration, individual animal", "setting": "[3]; 0.0830 hr, third animal received only 70% of the test article, listed as ADG I-204, 1 mg/kg", "value": "637 ng/g and 583 ng/g and 242*** ng/g"}, {"measurement": "Brain concentration, individual animal", "setting": "[3]; 1.00 hr, listed as ADG I-204, 1 mg/kg", "value": "119 ng/g and 60.3 ng/g and 149 ng/g"}, {"measurement": "Brain concentration, individual animal", "setting": "[3]; 4.00 hr, BQL limit 10.0 ng/g (204, 206), 20.0 ng/g (205, 207)", "value": "BQL"}, {"measurement": "Brain concentration, individual animal", "setting": "[3]; 8.00 hr, BQL limit 10.0 ng/g (204, 206), 20.0 ng/g (205, 207)", "value": "BQL"}, {"measurement": "Brain concentration, individual animal", "setting": "[3]; 24.0 hr, BQL limit 10.0 ng/g (204, 206), 20.0 ng/g (205, 207)", "value": "BQL"}, {"measurement": "concentration at 0.083 h", "setting": "[3]; SD, rat, brain, iv, 1 mg/kg, Rat (SD), 0.083 hr", "value": 487, "unit": "ng/g"}, {"measurement": "concentration at 1 h", "setting": "[3]; SD, rat, brain, iv, 1 mg/kg, Rat (SD), 1 hr, read-out: Brain concentration, mean", "value": 109, "unit": "ng/g"}, {"measurement": "solubility", "setting": "[4]", "value": 2, "unit": "µM"}, {"measurement": "half-life at 2 μM", "setting": "[5]", "value": 1.16, "unit": "h"}, {"measurement": "H3K9ac levels normalized to H3 and DMSO control", "setting": "H3K9ac; 1 uM", "value": 22.30, "unit": "%"}, {"measurement": "H3K9ac levels normalized to H3 and DMSO control", "setting": "H3K9ac; 5 uM", "value": 13.48, "unit": "%"}, {"measurement": "H3K9ac levels normalized to H3 and DMSO control", "setting": "H3K9ac; 10 uM", "value": 8.32, "unit": "%"}, {"measurement": "H3K9ac levels normalized to H3 and DMSO control", "setting": "H3K9ac; 20 uM", "value": 17.03, "unit": "%"}, {"measurement": "H3K9ac levels normalized to H3 and DMSO control", "setting": "H3K9ac; 50 uM", "value": 9.64, "unit": "%"}, {"measurement": "H3K9ac levels normalized to H3 and DMSO control", "setting": "H3K9ac; 100 uM", "value": 24.00, "unit": "%"}, {"measurement": "Plasma concentration, mean", "setting": "[6]; Rat (SD), 4 hr, terminal", "value": 4, "unit": "ng/mL"}, {"measurement": "Plasma concentration, mean", "setting": "[6]; Rat (SD), 8 hr, terminal", "value": 4, "unit": "ng/mL"}, {"measurement": "Plasma concentration, mean", "setting": "[6]; Rat (SD), 24 hr, terminal, BQL limit 1.00 ng/mL (ADG I-205: 2.00 ng/mL)", "value": 2, "unit": "ng/mL"}, {"measurement": "Plasma concentration, individual animal", "setting": "[6]; Rat, 0.0830 hr, terminal, third animal received only 70% of the test article", "value": "2340 ng/mL and 1170*** ng/mL"}, {"measurement": "Plasma concentration, individual animal", "setting": "[6]; Rat, 0.500 hr, not terminal (animals 4, 5 and 6)", "value": "4190** ng/mL and 357 ng/mL and 634 ng/mL"}, {"measurement": "Plasma concentration, individual animal", "setting": "[6]; Rat, 1.00 hr, terminal", "value": "278 ng/mL and 103 ng/mL and 279 ng/mL"}, {"measurement": "Plasma concentration, individual animal", "setting": "[6]; Rat, 4.00 hr, terminal, BQL limit 1.00 ng/mL (ADG I-205: 2.00 ng/mL)", "value": 4.35, "unit": "ng/mL"}, {"measurement": "Plasma concentration, individual animal", "setting": "[6]; Rat, 8.00 hr, terminal, BQL limit 1.00 ng/mL (ADG I-205: 2.00 ng/mL)", "value": "2.97 ng/mL and 5.93 ng/mL"}, {"measurement": "Plasma concentration, individual animal", "setting": "[6]; Rat, 24.0 hr, terminal, BQL limit 1.00 ng/mL (ADG I-205: 2.00 ng/mL)", "value": "1.09 ng/mL and BQL"}, {"measurement": "concentration at 0.083 h", "setting": "[6]; SD, rat, plasma, iv, 1 mg/kg, Rat (SD), 0.083 hr, terminal, read-out: Plasma concentration, mean", "value": 1910, "unit": "ng/mL"}, {"measurement": "concentration at 0.5 h", "setting": "[6]; SD, rat, plasma, iv, 1 mg/kg, Rat (SD), 0.500 hr, not a terminal time point (animals 4, 5 and 6)", "value": 1730, "unit": "ng/mL"}, {"measurement": "concentration at 1 h", "setting": "[6]; SD, rat, plasma, iv, 1 mg/kg, Rat (SD), 1 hr, terminal, read-out: Plasma concentration, mean", "value": 220, "unit": "ng/mL"}, {"measurement": "concentration at 4 h", "setting": "[6]; SD, rat, plasma, iv, 1 mg/kg, Rat (SD), 4 hr, terminal, read-out: Plasma concentration, mean", "value": 4.49, "unit": "ng/mL"}, {"measurement": "concentration at 8 h", "setting": "[6]; SD, rat, plasma, iv, 1 mg/kg, Rat (SD), 8 hr, terminal, read-out: Plasma concentration, mean", "value": 4.27, "unit": "ng/mL"}, {"measurement": "concentration at 24 h", "setting": "[6]; SD, rat, plasma, iv, 1 mg/kg, Rat (SD), 24 hr, terminal, BQL limit 1.00 ng/mL (ADG I-205: 2.00 ng/mL), read-out: Plasma concentration, mean", "value": 1.52, "unit": "ng/mL"}, {"measurement": "concentration at 0.083 h", "setting": "[6]; SD, rat, plasma, iv, 1 mg/kg, Rat, 0.0830 hr, terminal, third animal received only 70% of the test article, read-out: Plasma concentration, individual animal", "value": 2220, "unit": "ng/mL"}, {"measurement": "concentration at 4 h", "setting": "[6]; SD, rat, plasma, iv, 1 mg/kg, Rat, 4.00 hr, terminal, BQL limit 1.00 ng/mL (ADG I-205: 2.00 ng/mL), read-out: Plasma concentration, individual animal", "value": 8.63, "unit": "ng/mL"}, {"measurement": "concentration at 8 h", "setting": "[6]; SD, rat, plasma, iv, 1 mg/kg, Rat, 8.00 hr, terminal, BQL limit 1.00 ng/mL (ADG I-205: 2.00 ng/mL), read-out: Plasma concentration, individual animal", "value": 3.92, "unit": "ng/mL"}, {"measurement": "concentration at 24 h", "setting": "[6]; SD, rat, plasma, iv, 1 mg/kg, Rat, 24.0 hr, terminal, BQL limit 1.00 ng/mL (ADG I-205: 2.00 ng/mL), read-out: Plasma concentration, individual animal", "value": 1.95, "unit": "ng/mL"}, {"measurement": "Protein binding, plasma: % Protein free", "setting": "[7]", "value": 0.1994, "unit": "% Protein free"}, {"measurement": "Plasma concentration, mean", "setting": "[8]; 0.25 hr", "value": "BQL"}, {"measurement": "Plasma concentration, mean", "setting": "[8]; 0.5 hr", "value": "BQL"}, {"measurement": "Plasma concentration, mean", "setting": "[8]; 1 hr", "value": "BQL"}, {"measurement": "Plasma concentration, mean", "setting": "[8]; 4 hr", "value": "BQL"}, {"measurement": "Plasma concentration, mean", "setting": "[8]; 8 hr", "value": "BQL"}, {"measurement": "Plasma concentration, mean", "setting": "[8]; 24 hr", "value": "BQL"}, {"measurement": "Plasma concentration, individual animal", "setting": "[8]; 0.250 hr", "value": "BQL"}, {"measurement": "Plasma concentration, individual animal", "setting": "[8]; 0.500 hr", "value": "BQL"}, {"measurement": "Plasma concentration, individual animal", "setting": "[8]; 1.00 hr", "value": "BQL"}, {"measurement": "Plasma concentration, individual animal", "setting": "[8]; 4.00 hr", "value": "BQL"}, {"measurement": "Plasma concentration, individual animal", "setting": "[8]; 8.00 hr", "value": "BQL"}, {"measurement": "Plasma concentration, individual animal", "setting": "[8]; 24.0 hr", "value": "BQL"}]}]}
